From the supplement of paper PMC8882468

test system: HCI-025 (organoid from a breast cancer xenograft); experiment: CTG-3D luminescence at 96 h relative to day-0 seeding control (ratio to day 0); higher = more growth / less cytotoxicity; PDxO 3D drug screen, 96 h, CTG-3D normalised to day-0 seeding control.; conditions: 625 fM; days in culture: 172

First: C[C@@H]1COCCN1c1cc(C2([S@](C)(=N)=O)CC2)nc(-c2cc[nH]c3nccc2-3)n1 [ceralasertib]
Second: NC1(C(=O)N[C@@H](CCO)c2ccc(Cl)cc2)CCN(c2nc[nH]c3nccc2-3)CC1 [capivasertib]
The “CTG-3D luminescence at 96 h” value of the first is lower: 1.92 for the first, 2.57 for the second.

Compared with CCN1CCN(Cc2ccc(Nc3ncc(F)c(-c4cc(F)c5nc(C)n(C(C)C)c5c4)n3)nc2)CC1 [abemaciclib], Cc1cc(Nc2ncc(Cl)c(Nc3ccccc3S(=O)(=O)C(C)C)n2)c(OC(C)C)cc1C1CCNCC1 [ceritinib] is higher in “CTG-3D luminescence at 96 h” value: 2.18 for the first, 2.37 for the second.

First: CC(C)n1nc(-c2ccc3oc(N)nc3c2)c2c(N)ncnc21 [sapanisertib]
Second: NC(=O)c1cccc2cn(-c3ccc([C@@H]4CCCNC4)cc3)nc12 [niraparib]
The “CTG-3D luminescence at 96 h” value of the first is lower: 2.01 for the first, 2.26 for the second.

First: O=C(c1ccc(F)c(F)c1Nc1ccc(I)cc1F)N1CC(O)([C@@H]2CCCCN2)C1 [cobimetinib]
Second: CS(=O)(=O)c1ccc(C(=O)Nc2ccc(Cl)c(-c3ccccn3)c2)c(Cl)c1 [vismodegib]
The “CTG-3D luminescence at 96 h” value of the first is higher: 2.94 for the first, 2.37 for the second.

In the case of C[C@H](NC(=O)CCC(F)(F)F)C(=O)N[C@@H]1C(=O)N(CCO)c2ncccc2-c2ccccc21 [crenigacestat], the “CTG-3D luminescence at 96 h” value is reported as 2.44.

same assay, conditions: 625 fM; days in culture: 209

Compared with C[C@@H]1COCCN1c1cc(C2([S@](C)(=N)=O)CC2)nc(-c2cc[nH]c3nccc2-3)n1 [ceralasertib], NC1(C(=O)N[C@@H](CCO)c2ccc(Cl)cc2)CCN(c2nc[nH]c3nccc2-3)CC1 [capivasertib] is higher in “CTG-3D luminescence at 96 h” value: 1.38 for the first, 1.74 for the second.

Compared with CCN1CCN(Cc2ccc(Nc3ncc(F)c(-c4cc(F)c5nc(C)n(C(C)C)c5c4)n3)nc2)CC1 [abemaciclib], Cc1cc(Nc2ncc(Cl)c(Nc3ccccc3S(=O)(=O)C(C)C)n2)c(OC(C)C)cc1C1CCNCC1 [ceritinib] is higher in “CTG-3D luminescence at 96 h” value: 1.49 for the first, 1.68 for the second.

Compared with CC(C)n1nc(-c2ccc3oc(N)nc3c2)c2c(N)ncnc21 [sapanisertib], NC(=O)c1cccc2cn(-c3ccc([C@@H]4CCCNC4)cc3)nc12 [niraparib] is higher in “CTG-3D luminescence at 96 h” value: 1.33 for the first, 1.59 for the second.

Going from O=C(c1ccc(F)c(F)c1Nc1ccc(I)cc1F)N1CC(O)([C@@H]2CCCCN2)C1 [cobimetinib] to CS(=O)(=O)c1ccc(C(=O)Nc2ccc(Cl)c(-c3ccccn3)c2)c(Cl)c1 [vismodegib], the “CTG-3D luminescence at 96 h” value falls from 1.83 to 1.57.

C[C@H](NC(=O)CCC(F)(F)F)C(=O)N[C@@H]1C(=O)N(CCO)c2ncccc2-c2ccccc21 [crenigacestat] was tested, and the “CTG-3D luminescence at 96 h” value was 1.58.

same assay, conditions: 625 fM; days in culture: 218

First: C[C@@H]1COCCN1c1cc(C2([S@](C)(=N)=O)CC2)nc(-c2cc[nH]c3nccc2-3)n1 [ceralasertib]
Second: NC1(C(=O)N[C@@H](CCO)c2ccc(Cl)cc2)CCN(c2nc[nH]c3nccc2-3)CC1 [capivasertib]
The “CTG-3D luminescence at 96 h” value of the first is higher: 1.88 for the first, 1.69 for the second.

First: CCN1CCN(Cc2ccc(Nc3ncc(F)c(-c4cc(F)c5nc(C)n(C(C)C)c5c4)n3)nc2)CC1 [abemaciclib]
Second: Cc1cc(Nc2ncc(Cl)c(Nc3ccccc3S(=O)(=O)C(C)C)n2)c(OC(C)C)cc1C1CCNCC1 [ceritinib]
The “CTG-3D luminescence at 96 h” value of the first is lower: 1.33 for the first, 2.18 for the second.

Going from CC(C)n1nc(-c2ccc3oc(N)nc3c2)c2c(N)ncnc21 [sapanisertib] to NC(=O)c1cccc2cn(-c3ccc([C@@H]4CCCNC4)cc3)nc12 [niraparib], the “CTG-3D luminescence at 96 h” value falls from 1.99 to 1.62.

Going from O=C(c1ccc(F)c(F)c1Nc1ccc(I)cc1F)N1CC(O)([C@@H]2CCCCN2)C1 [cobimetinib] to CS(=O)(=O)c1ccc(C(=O)Nc2ccc(Cl)c(-c3ccccn3)c2)c(Cl)c1 [vismodegib], the “CTG-3D luminescence at 96 h” value rises from 1.71 to 1.87.

In the case of C[C@H](NC(=O)CCC(F)(F)F)C(=O)N[C@@H]1C(=O)N(CCO)c2ncccc2-c2ccccc21 [crenigacestat], the “CTG-3D luminescence at 96 h” value is reported as 2.02.

test system: HCI-015 (organoid from a triple-negative breast cancer xenograft); experiment: as above; conditions: 12.5 pM; days in culture: 172

Going from C[C@@H]1COCCN1c1cc(C2([S@](C)(=N)=O)CC2)nc(-c2cc[nH]c3nccc2-3)n1 [ceralasertib] to NC1(C(=O)N[C@@H](CCO)c2ccc(Cl)cc2)CCN(c2nc[nH]c3nccc2-3)CC1 [capivasertib], the “CTG-3D luminescence at 96 h” value falls from 2.39 to 2.34.

Compared with CCN1CCN(Cc2ccc(Nc3ncc(F)c(-c4cc(F)c5nc(C)n(C(C)C)c5c4)n3)nc2)CC1 [abemaciclib], Cc1cc(Nc2ncc(Cl)c(Nc3ccccc3S(=O)(=O)C(C)C)n2)c(OC(C)C)cc1C1CCNCC1 [ceritinib] is lower in “CTG-3D luminescence at 96 h” value: 2.01 for the first, 1.51 for the second.

First: CC(C)n1nc(-c2ccc3oc(N)nc3c2)c2c(N)ncnc21 [sapanisertib]
Second: NC(=O)c1cccc2cn(-c3ccc([C@@H]4CCCNC4)cc3)nc12 [niraparib]
The “CTG-3D luminescence at 96 h” value of the first is lower: 2.06 for the first, 2.77 for the second.

Going from O=C(c1ccc(F)c(F)c1Nc1ccc(I)cc1F)N1CC(O)([C@@H]2CCCCN2)C1 [cobimetinib] to CS(=O)(=O)c1ccc(C(=O)Nc2ccc(Cl)c(-c3ccccn3)c2)c(Cl)c1 [vismodegib], the “CTG-3D luminescence at 96 h” value falls from 2.36 to 2.23.

C[C@H](NC(=O)CCC(F)(F)F)C(=O)N[C@@H]1C(=O)N(CCO)c2ncccc2-c2ccccc21 [crenigacestat] was tested, and the “CTG-3D luminescence at 96 h” value was 2.18.

same assay, conditions: 12.5 pM; days in culture: 191

Going from C[C@@H]1COCCN1c1cc(C2([S@](C)(=N)=O)CC2)nc(-c2cc[nH]c3nccc2-3)n1 [ceralasertib] to NC1(C(=O)N[C@@H](CCO)c2ccc(Cl)cc2)CCN(c2nc[nH]c3nccc2-3)CC1 [capivasertib], the “CTG-3D luminescence at 96 h” value rises from 1.99 to 2.07.

Compared with CCN1CCN(Cc2ccc(Nc3ncc(F)c(-c4cc(F)c5nc(C)n(C(C)C)c5c4)n3)nc2)CC1 [abemaciclib], Cc1cc(Nc2ncc(Cl)c(Nc3ccccc3S(=O)(=O)C(C)C)n2)c(OC(C)C)cc1C1CCNCC1 [ceritinib] is higher in “CTG-3D luminescence at 96 h” value: 1.17 for the first, 2.15 for the second.

Going from CC(C)n1nc(-c2ccc3oc(N)nc3c2)c2c(N)ncnc21 [sapanisertib] to NC(=O)c1cccc2cn(-c3ccc([C@@H]4CCCNC4)cc3)nc12 [niraparib], the “CTG-3D luminescence at 96 h” value rises from 1.67 to 2.28.

First: O=C(c1ccc(F)c(F)c1Nc1ccc(I)cc1F)N1CC(O)([C@@H]2CCCCN2)C1 [cobimetinib]
Second: CS(=O)(=O)c1ccc(C(=O)Nc2ccc(Cl)c(-c3ccccn3)c2)c(Cl)c1 [vismodegib]
The “CTG-3D luminescence at 96 h” value of the first is lower: 1.86 for the first, 2.65 for the second.

With C[C@H](NC(=O)CCC(F)(F)F)C(=O)N[C@@H]1C(=O)N(CCO)c2ncccc2-c2ccccc21 [crenigacestat] the “CTG-3D luminescence at 96 h” value was 1.82.

same assay, conditions: 12.5 pM; days in culture: 218

Going from C[C@@H]1COCCN1c1cc(C2([S@](C)(=N)=O)CC2)nc(-c2cc[nH]c3nccc2-3)n1 [ceralasertib] to NC1(C(=O)N[C@@H](CCO)c2ccc(Cl)cc2)CCN(c2nc[nH]c3nccc2-3)CC1 [capivasertib], the “CTG-3D luminescence at 96 h” value falls from 1.79 to 1.47.

Going from CCN1CCN(Cc2ccc(Nc3ncc(F)c(-c4cc(F)c5nc(C)n(C(C)C)c5c4)n3)nc2)CC1 [abemaciclib] to Cc1cc(Nc2ncc(Cl)c(Nc3ccccc3S(=O)(=O)C(C)C)n2)c(OC(C)C)cc1C1CCNCC1 [ceritinib], the “CTG-3D luminescence at 96 h” value falls from 2.17 to 1.77.

Going from CC(C)n1nc(-c2ccc3oc(N)nc3c2)c2c(N)ncnc21 [sapanisertib] to NC(=O)c1cccc2cn(-c3ccc([C@@H]4CCCNC4)cc3)nc12 [niraparib], the “CTG-3D luminescence at 96 h” value rises from 1.96 to 2.06.

Compared with O=C(c1ccc(F)c(F)c1Nc1ccc(I)cc1F)N1CC(O)([C@@H]2CCCCN2)C1 [cobimetinib], CS(=O)(=O)c1ccc(C(=O)Nc2ccc(Cl)c(-c3ccccn3)c2)c(Cl)c1 [vismodegib] is lower in “CTG-3D luminescence at 96 h” value: 1.8 for the first, 1.6 for the second.

C[C@H](NC(=O)CCC(F)(F)F)C(=O)N[C@@H]1C(=O)N(CCO)c2ncccc2-c2ccccc21 [crenigacestat] was tested, and the “CTG-3D luminescence at 96 h” value was 1.66.

same assay, conditions: 0.00025 µM; days in culture: 172

Going from C[C@@H]1COCCN1c1cc(C2([S@](C)(=N)=O)CC2)nc(-c2cc[nH]c3nccc2-3)n1 [ceralasertib] to NC1(C(=O)N[C@@H](CCO)c2ccc(Cl)cc2)CCN(c2nc[nH]c3nccc2-3)CC1 [capivasertib], the “CTG-3D luminescence at 96 h” value falls from 2.46 to 2.2.

Going from CCN1CCN(Cc2ccc(Nc3ncc(F)c(-c4cc(F)c5nc(C)n(C(C)C)c5c4)n3)nc2)CC1 [abemaciclib] to Cc1cc(Nc2ncc(Cl)c(Nc3ccccc3S(=O)(=O)C(C)C)n2)c(OC(C)C)cc1C1CCNCC1 [ceritinib], the “CTG-3D luminescence at 96 h” value rises from 1.6 to 1.75.

Going from CC(C)n1nc(-c2ccc3oc(N)nc3c2)c2c(N)ncnc21 [sapanisertib] to NC(=O)c1cccc2cn(-c3ccc([C@@H]4CCCNC4)cc3)nc12 [niraparib], the “CTG-3D luminescence at 96 h” value rises from 1.81 to 1.86.

Going from O=C(c1ccc(F)c(F)c1Nc1ccc(I)cc1F)N1CC(O)([C@@H]2CCCCN2)C1 [cobimetinib] to CS(=O)(=O)c1ccc(C(=O)Nc2ccc(Cl)c(-c3ccccn3)c2)c(Cl)c1 [vismodegib], the “CTG-3D luminescence at 96 h” value rises from 1.69 to 2.

With C[C@H](NC(=O)CCC(F)(F)F)C(=O)N[C@@H]1C(=O)N(CCO)c2ncccc2-c2ccccc21 [crenigacestat] the “CTG-3D luminescence at 96 h” value was 1.26.

same assay, conditions: 0.00025 µM; days in culture: 191

Compared with C[C@@H]1COCCN1c1cc(C2([S@](C)(=N)=O)CC2)nc(-c2cc[nH]c3nccc2-3)n1 [ceralasertib], NC1(C(=O)N[C@@H](CCO)c2ccc(Cl)cc2)CCN(c2nc[nH]c3nccc2-3)CC1 [capivasertib] is higher in “CTG-3D luminescence at 96 h” value: 1.33 for the first, 1.39 for the second.

First: CCN1CCN(Cc2ccc(Nc3ncc(F)c(-c4cc(F)c5nc(C)n(C(C)C)c5c4)n3)nc2)CC1 [abemaciclib]
Second: Cc1cc(Nc2ncc(Cl)c(Nc3ccccc3S(=O)(=O)C(C)C)n2)c(OC(C)C)cc1C1CCNCC1 [ceritinib]
The “CTG-3D luminescence at 96 h” value of the first is lower: 1.4 for the first, 1.47 for the second.

Compared with CC(C)n1nc(-c2ccc3oc(N)nc3c2)c2c(N)ncnc21 [sapanisertib], NC(=O)c1cccc2cn(-c3ccc([C@@H]4CCCNC4)cc3)nc12 [niraparib] is lower in “CTG-3D luminescence at 96 h” value: 1.6 for the first, 1.35 for the second.

First: O=C(c1ccc(F)c(F)c1Nc1ccc(I)cc1F)N1CC(O)([C@@H]2CCCCN2)C1 [cobimetinib]
Second: CS(=O)(=O)c1ccc(C(=O)Nc2ccc(Cl)c(-c3ccccn3)c2)c(Cl)c1 [vismodegib]
The “CTG-3D luminescence at 96 h” value of the first is lower: 1.15 for the first, 1.16 for the second.

With C[C@H](NC(=O)CCC(F)(F)F)C(=O)N[C@@H]1C(=O)N(CCO)c2ncccc2-c2ccccc21 [crenigacestat] the “CTG-3D luminescence at 96 h” value was 1.27.

same assay, conditions: 0.00025 µM; days in culture: 218

Going from C[C@@H]1COCCN1c1cc(C2([S@](C)(=N)=O)CC2)nc(-c2cc[nH]c3nccc2-3)n1 [ceralasertib] to NC1(C(=O)N[C@@H](CCO)c2ccc(Cl)cc2)CCN(c2nc[nH]c3nccc2-3)CC1 [capivasertib], the “CTG-3D luminescence at 96 h” value falls from 1.5 to 1.49.

First: CCN1CCN(Cc2ccc(Nc3ncc(F)c(-c4cc(F)c5nc(C)n(C(C)C)c5c4)n3)nc2)CC1 [abemaciclib]
Second: CC(C)n1nc(-c2ccc3oc(N)nc3c2)c2c(N)ncnc21 [sapanisertib]
The “CTG-3D luminescence at 96 h” value of the first is higher: 1.65 for the first, 1.53 for the second.
